Laboratory results: patent US20240417410A1, “TRICYCLIC COMPOUNDS FOR THE TREATMENT OF CANCER” (Hoffmann-La Roche Inc., priority 2023, published 2024)
Where two headings read alike, the source gives them in different places.

How the values were obtained:
Assay in all cases: Cell proliferation, CTG 3D, 7 d
Format in all cases: cell-based
NCI-H2087 = conditions: Homo sapiens
Description: (§1) On Day-1, cells were plated in 384-well round-bottom ultra-low adhesion plates (cat. Corning 3830, with cell density adjusted according to Table 3. The assay plate was then centrifuged at 1000 rpm for 1 minute to ensure even distribution of cells. The plate was incubated at 37° C. in a 5% CO2 atmosphere (It is worth noting that for SW1271 cell plate, it needs to be incubated in an incubator without additional CO2).
(§2) On Day 0, Example 24 or A122 was added to each well using a Tecan HP D300E dispenser, with a 3-fold dilution across 9 doses. The final concentration of DMSO was normalized to 0.2%. The assay plate was then centrifuged at 1000 rpm for 1 minute and incubated for 7 days.
(§3) On Day 7, CellTiter-Glo (CTG) 3D reagent (Promega G9683) was dispensed into each well of a 384-well plate using a multi-drop dispenser (Thermo Scientific 66413). A liquid handling automation workstation (Bravo with a 384-well head) was used to mix the CTG reagents. Plates were left on a shaker for 30 minutes at 450 rpm, shielded from light.
(§4) For data analysis, the XL-fit software (Supplier: ID Business Solutions Ltd., Software version: XL fit 5.0) was utilized. The percentage of inhibition was calculated using the formula: Inhibition %=(Max-Sample value)/(Max-Min)×100. Curve fitting was performed as follows: For complete dose-response curves, the relative IC50 was reported from the fit. For incomplete curves, if minimal inhibition was greater than 50%, an IC50 less than the lowest compound concentration was reported. If minimal inhibition was between 20% and 50%, the bottom was locked at 0% and the IC50 was reported. If maximal inhibition was less than 50%, an IC50 greater than the highest compound concentration was reported.

TOV-21G = conditions: Homo sapiens, TOV21G
Description: as §1, §2, §3, §4

TT = conditions: Homo sapiens, KRAS (WT ampl)
Description: as §1, §2, §3, §4

SW1271 = conditions: Homo sapiens
Description: as §1, §2, §3, §4

H9 = conditions: Homo sapiens
Description: as §1, §2, §3, §4

CHP-212 = conditions: Homo sapiens
Description: as §1, §2, §3, §4

NCI-H23 = conditions: Homo sapiens; NCI-H23, KRAS (G12C)
Description: as §1, §2, §3, §4

HPAC = conditions: Homo sapiens, KRAS (G12D)
Description: as §1, §2, §3, §4

LU99 = conditions: Homo sapiens, Lu-99; LU99, KRAS (G12C)
Description: as §1, §2, §3, §4

SK-CO-1 = conditions: Homo sapiens; SK-CO-1, KRAS (G12V)
Description: as §1, §2, §3, §4

NCI-H1734 = conditions: Homo sapiens
Description: as §1, §2, §3, §4

SUM 159PT = conditions: Homo sapiens, HRAS (p.G12D)
Description: as §1, §2, §3, §4

Hs-766T = conditions: Homo sapiens, Hs766T
Description: as §1, §2, §3, §4

AML-193 = conditions: Homo sapiens
Description: as §1, §2, §3, §4

SKM-1 = conditions: Homo sapiens
Description: as §1, §2, §3, §4

KYSE-30 = conditions: Homo sapiens
Description: as §1, §2, §3, §4

GP5d = conditions: Homo sapiens, KRAS (G12D)
Description: as §1, §2, §3, §4

HCC-15 = conditions: Homo sapiens, HCC15
Description: as §1, §2, §3, §4

PANC-1 = conditions: Homo sapiens; PANC-1, KRAS (G12D)
Description: as §1, §2, §3, §4

NCI-H747 = conditions: Homo sapiens
Description: as §1, §2, §3, §4

COR-L23 = conditions: Homo sapiens; COR-L23, KRAS (G12V)
Description: as §1, §2, §3, §4

SW620 = conditions: Homo sapiens, SW-620; SW620, KRAS (G12V)
Description: as §1, §2, §3, §4

GP2d = conditions: Homo sapiens, KRAS (G12D)
Description: as §1, §2, §3, §4

Mia-pa-ca-2 = conditions: Homo sapiens, MIA PaCa-2; Mia-pa-ca-2, KRAS (G12C)
Description: as §1, §2, §3, §4

MOLT-4 = conditions: Homo sapiens; MOLT-4, NRAS (p.G12C)
Description: as §1, §2, §3, §4

HCT-15 = conditions: Homo sapiens
Description: as §1, §2, §3, §4

SK-N-SH = conditions: Homo sapiens
Description: as §1, §2, §3, §4

KMS-28BM = conditions: Homo sapiens
Description: as §1, §2, §3, §4

`CO[C@@H](C)c1ncc(N2CCN(C)CC2)cc1-c1c2c3cc(cc4c3n1CCC4)-c1csc(n1)C[C@H](NC(=O)[C@H]1[C@H](C)[C@@H]1C)C(=O)N1CCC[C@H](N1)C(=O)OCC(C)(C)C2` (atropisomer, axis not shown; (M)) [Example 24, (1r,2R,3S)-N-[(7S,13S)-(20M)-20-[2-[(1S)-1-methoxyethyl]-5-(4-methylpiperazin-1-yl)-3-pyridyl]-17,17-dimethyl-8,14-dioxo-15-oxa-4-thia-9,21,30,31-tetrazahexacyclo[23.3.1.1^2,5.1^9,13.0^19,27.0^21,26]hentriaconta-1 (28),2,5 (31), 19,25 (29),26-hexaen-7-yl]-2,3-dimethyl-cyclopropanecarboxamide] showed an IC50 (NCI-H2087; NCI-H2087, NRAS (p.Q61K), read-out: IC50) of 0.21 nM, an IC50 (TOV-21G; TOV-21G, KRAS (G13C), read-out: IC50) of 4.9 nM and an IC50 (TT) of 2.9 nM. For the same compound, the IC50 (SW1271; SW1271, NRAS (p.Q61R), read-out: IC50) was 1.7 nM, the IC50 (H9; H9, NRAS (p.Q61K), read-out: IC50) was 0.72 nM and the IC50 (CHP-212; CHP-212, NRAS (p.Q61K), read-out: IC50) was 0.35 nM. For the same compound, the IC50 (NCI-H23) was 0.17 nM, the IC50 (HPAC) was 0.31 nM and the IC50 (LU99) was 0.59 nM. It also gave an IC50 (SK-CO-1) of 0.18 nM, an IC50 (NCI-H1734; NCI-H1734, KRAS (G13C), read-out: IC50) of 0.74 nM and an IC50 (SUM 159PT) of 4.5 nM. For the same compound, the IC50 (Hs-766T; Hs-766T, KRAS (Q61H), read-out: IC50) was 100 nM, the IC50 (AML-193; AML-193, NRAS (p.G13V), read-out: IC50) was 1.1 nM and the IC50 (SKM-1; SKM-1, KRAS (K117N), read-out: IC50) was 0.93 nM. The IC50 (KYSE-30; KYSE-30, HRAS (p.Q61L), read-out: IC50) was 0.46 nM, the IC50 (GP5d) was 0.48 nM and the IC50 (HCC-15; HCC-15, NRAS (p.Q61K), read-out: IC50) was 0.68 nM. For the same compound, the IC50 (PANC-1) was 0.95 nM, the IC50 (NCI-H747; NCI-H747, KRAS (G13D), read-out: IC50) was 0.72 nM and the IC50 (COR-L23) was 0.53 nM. It also gave an IC50 (SW620) of 0.1 nM, an IC50 (GP2d) of 0.63 nM and an IC50 (Mia-pa-ca-2) of 0.064 nM. For the same compound, the IC50 (MOLT-4) was 1000 nM, the IC50 (HCT-15; HCT-15, KRAS (G13D), read-out: IC50) was 100 nM and the IC50 (SK-N-SH; NRAS (p.Q61K), read-out: IC50) was 1000 nM. It also gave an IC50 (KMS-28BM; KRAS (G12A), read-out: IC50) of 0.63 nM.
In the case of `CCn1c(-c2cc(N3CCN(C)CC3)cnc2[C@H](C)OC)c2c3cc(ccc31)-c1csc(n1)C[C@H](NC(=O)[C@H]1C[C@@H]1C)C(=O)N1CCC[C@H](N1)C(=O)OCC(C)(C)O2` [Example A122, reference compound], the IC50 (NCI-H2087; NCI-H2087) is reported as 0.44 nM, the IC50 (TOV-21G) is reported as 33 nM and the IC50 (TT) is reported as 5.9 nM. The IC50 (SW1271; SW1271) was 3 nM, the IC50 (H9; H9) was 1.6 nM and the IC50 (CHP-212; CHP-212) was 1.1 nM. The IC50 (NCI-H23) was 0.33 nM, the IC50 (HPAC) was 0.3 nM and the IC50 (LU99) was 0.91 nM. It also gave an IC50 (SK-CO-1) of 0.33 nM, an IC50 (NCI-H1734; NCI-H1734) of 1.3 nM and an IC50 (SUM 159PT) of 3 nM. The IC50 (Hs-766T) was 100 nM, the IC50 (AML-193) was 2.1 nM and the IC50 (SKM-1; SKM-1) was 1.3 nM. For the same compound, the IC50 (KYSE-30; KYSE-30) was 1 nM, the IC50 (GP5d) was 0.41 nM and the IC50 (HCC-15) was 1.7 nM. For the same compound, the IC50 (PANC-1) was 0.68 nM, the IC50 (NCI-H747; NCI-H747) was 0.91 nM and the IC50 (COR-L23) was 0.78 nM. The IC50 (SW620) was 0.23 nM, the IC50 (GP2d) was 0.55 nM and the IC50 (Mia-pa-ca-2) was 0.082 nM. It also gave an IC50 (MOLT-4) of 1000 nM, an IC50 (HCT-15; HCT-15) of 100 nM and an IC50 (SK-N-SH) of 580 nM. It also gave an IC50 (KMS-28BM) of 0.88 nM.
